The conditions of data set [1]: buffer.
Data set [2] in a line: aqueous solution stability. As to conditions: hydrochloride salt.

Each structure is given as a SMILES string. Read-outs that look alike come from different tables or passages of the source. Where only a bound is given, the exact number is not on record here.

The values that follow come from US7741342B2, “Water-soluble thalidomine derivatives” (priority 2003, dated 2010).

On to `CCN(CC)CC(=O)OCN1C(=O)CCC(N2C(=O)c3ccccc3C2=O)C1=O.Cl` (centres unmarked) [Example 4, Diethylaminoacetic acid 2-(1-(hydroxymethyl)-2,6-dioxopiperidin-3-yl)isoindoline-1,3-dione ester hydrochloride], for which the “aqueous solution stability t1/2” value in data set [1] was > 8 h. With `CCN(CC)CC(=O)N[C@H](C(=O)OCN1C(=O)CCC(N2C(=O)c3ccccc3C2=O)C1=O)C(C)C.Cl` (stereo partly drawn) [Example 1, (S)-2-(diethylaminoacetamido)-3-methyl butyric acid 2-(1-(hydroxymethyl)-2,6-dioxopiperidin-3-yl)isoindoline-1,3-dione ester hydrochloride], the “aqueous solution stability t1/2” value in data set [2] was > 8 h. `CC(C)[C@H](NC(=O)CN1CCCCC1)C(=O)OCN1C(=O)CCC(N2C(=O)c3ccccc3C2=O)C1=O.Cl` (stereo partly drawn) [Example 3, (S)-2-(1-piperidinylacetamido)-3-methyl butyric acid 2-(1-(hydroxymethyl)-2,6-dioxopiperidin-3-yl)isoindoline-1,3-dione ester hydrochloride]: in data set [2], the “aqueous solution stability t1/2” value was > 8 h.

In the case of `CN(C)CC(=O)OCN1C(=O)CCC(N2C(=O)c3ccccc3C2=O)C1=O.Cl` (centres unmarked) [Example 5, Dimethylaminoacetic acid 2-(1-(hydroxymethyl)-2,6-dioxopiperidin-3-yl)isoindoline-1,3-dione ester hydrochloride salt], the “aqueous solution stability t1/2” value in data set [1] is > 4 h. On to `CC(C)[C@H](NC(=O)CN(C)C)C(=O)OCN1C(=O)CCC(N2C(=O)c3ccccc3C2=O)C1=O.Cl` (stereo partly drawn) [Example 2, (S)-2-(dimethylaminoacetamido)-3-methyl butyric acid 2-(1-(hydroxymethyl)-2,6-dioxopiperidin-3-yl)isoindoline-1,3-dione ester hydrochloride], for which the “aqueous solution stability t1/2” value in data set [2] is > 8 h.
